According to PubChem BioAssay (NCI):
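A five-concentration, 48-hour dose response in 96-well plates underlies each endpoint, interpolated linearly between surrounding concentrations. GI50 = concentration required for 50% inhibition of growth. Definition used: TGI = concentration required for complete inhibition of growth.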

Key:
Assay in all cases: growth of human tumour cells (NCI), 48 h
COLO 205 colon = system: COLO 205 colon
DU-145 prostate = system: DU-145 prostate
HOP-92 NSCLC = system: HOP-92 NSCLC
HS 578T breast = system: HS 578T breast
MDA-MB-231 breast = system: MDA-MB-231 breast
OVCAR-5 ovarian = system: OVCAR-5 ovarian
PC-3 prostate = system: PC-3 prostate
SK-MEL-2 melanoma = system: SK-MEL-2 melanoma
SK-MEL-28 melanoma = system: SK-MEL-28 melanoma
SW-620 colon = system: SW-620 colon

Structure (SMILES) | TGI (COLO 205 colon) [µM] | TGI (DU-145 prostate) [µM] | TGI (HOP-92 NSCLC) [µM] | TGI (HS 578T breast) [µM] | TGI (MDA-MB-231 breast) [µM] | TGI (OVCAR-5 ovarian) [µM] | TGI (PC-3 prostate) [µM] | TGI (SK-MEL-2 melanoma) [µM] | TGI (SK-MEL-28 melanoma) [µM] | TGI (SW-620 colon) [µM] | GI50 (COLO 205 colon) [µM] | GI50 (DU-145 prostate) [µM] | GI50 (HOP-92 NSCLC) [µM] | GI50 (HS 578T breast) [µM] | GI50 (MDA-MB-231 breast) [µM] | GI50 (OVCAR-5 ovarian) [µM] | GI50 (PC-3 prostate) [µM] | GI50 (SK-MEL-2 melanoma) [µM] | GI50 (SK-MEL-28 melanoma) [µM] | GI50 (SW-620 colon) [µM]
N#Cc1cccc(N2C(=O)C3C4C=CC(C3C2=O)C2C(=O)N(c3cccc(C#N)c3)C(=O)C42)c1 (stereo not given) | > 63.1 | > 100 | 31.6 | > 95.5 | > 100 | > 63.1 | > 100 | 34.7 | > 63.1 | > 100 | – | – | – | – | – | – | – | – | – | –
Cc1ccc(C(=O)NC2CC2)cc1-c1ccc2[nH]ncc2c1 | > 25 | > 25 | > 25 | > 25 | > 25 | > 25 | > 25 | > 25 | > 25 | > 25 | > 25 | > 25 | 6.22 | > 19.5 | > 25 | > 25 | > 25 | > 25 | > 25 | > 25
O=C1NC(c2ccccc2)C2(C(=O)O)CN(C3CC3)c3cc(N4CCNCC4)c(F)cc3C2N1 (stereo not given) | > 100 | > 100 | > 100 | > 100 | > 100 | > 100 | > 100 | > 100 | > 100 | > 100 | > 100 | > 100 | > 100 | > 100 | > 100 | > 100 | > 100 | > 100 | > 100 | > 100
COC(C)C(O)(C(=O)OCC1=CCN2CCC(O)C12)C(C)(C)O (stereo not given) | > 100 | > 100 | > 100 | > 100 | > 100 | > 100 | > 100 | > 100 | > 100 | > 100 | – | – | – | – | – | – | – | – | – | –
NC(Cc1ccccc1)c1nccs1 (stereo not given) | > 100 | > 100 | > 100 | > 100 | > 100 | > 100 | > 100 | > 100 | > 100 | > 100 | – | – | – | – | – | – | – | – | – | –
Cc1cc(O)c(-c2ccc([C@@H](C)CN(C)C)cc2)c2c1[nH]c(=O)c1sccc12 | 5.2 | 53.3 | 5.35 | 20.8 | 28.6 | 17.5 | 18 | 3.04 | 5.56 | > 61.9 | 2.18 | 0.528 | 0.848 | 0.207 | 0.608 | 2.25 | 0.667 | 0.679 | 1.33 | 0.556
COC(=O)N[C@H]1CCc2c(Cl)c(OC)c(OC)c(OC)c2-c2ccc(SC)c(=O)cc21 | 0.0303 | > 100 | 18.6 | > 100 | 11.9 | > 94.8 | > 70.3 | > 70.3 | 46 | > 100 | < 0.01 | < 0.01 | 0.0199 | < 0.01 | < 0.01 | < 0.01 | < 0.01 | 5.89 | 8.52 | < 0.01
COc1ccc(-c2cc(=O)c3c(O)c(OC)c(OC)c(OC)c3o2)cc1 | > 100 | > 100 | > 82.8 | > 93.7 | > 72 | > 100 | > 100 | > 81.3 | > 100 | > 100 | – | – | – | – | – | – | – | – | – | –
N#CC1=C(N)NC(=O)NC12Nc1ccccc1N2 | > 100 | > 100 | > 100 | > 100 | > 100 | > 100 | > 100 | > 100 | > 100 | > 100 | > 100 | > 100 | 31.3 | > 100 | > 100 | > 100 | > 100 | > 100 | > 100 | > 100
CC1SC(c2ccc(Cl)cc2Cl)N(NC(=O)C(O)c2ccccc2)C1=O (stereo not given) | > 100 | > 100 | > 100 | > 100 | > 100 | > 100 | > 100 | > 100 | > 100 | > 100 | > 100 | > 100 | 35.9 | > 100 | 46.2 | > 100 | 42.3 | > 100 | 76.1 | > 100
O=C(Nc1cccc(C(F)(F)F)c1)Oc1ccc(Cl)c2cccnc12 | 6.39 | 15.8 | 4.02 | > 24 | 6.15 | 18 | 14.2 | 5.55 | 17.8 | 12.9 | 2.48 | 2.38 | 0.462 | 3.56 | 2.11 | 3.6 | 0.607 | 2.07 | 4.29 | 1.49
C[C@]12C[C@H](O)[C@H]3[C@@H](CCC4=CC(=O)CC[C@@]43C)[C@@H]1CC[C@@H]2c1csc(-c2ccccc2)n1 | > 100 | > 100 | > 100 | > 80 | > 77.8 | > 100 | 20.3 | > 90.5 | > 100 | > 100 | – | – | – | – | – | – | – | – | – | –
O=c1/c(=N\Nc2ccccc2)c2cccc3ccc4cccc1c4c32 | > 100 | > 100 | > 100 | > 100 | > 100 | > 100 | > 100 | > 100 | > 100 | > 100 | – | – | – | – | – | – | – | – | – | –
C[C@@H]1CC[C@@]2(NC1)O[C@H]1C[C@H]3[C@@H]4CC[C@H]5C[C@@H](O)CC[C@]5(C)[C@H]4CC[C@]3(C)[C@H]1[C@@H]2C | > 100 | > 100 | > 100 | > 100 | > 100 | > 100 | > 100 | > 100 | > 100 | > 100 | – | – | – | – | – | – | – | – | – | –
O=C([O-])CC(=O)[O-].[NH-][C@@H]1CCCC[C@H]1[NH-].[Pt+4] | > 100 | > 100 | > 100 | > 100 | > 100 | > 100 | > 100 | > 100 | > 100 | > 100 | 54 | 93 | > 100 | 19.6 | > 100 | > 63.9 | 37 | 59.9 | 35.8 | 2.1
